Data taken from patent publication US20250041330A1, “METHOD OF TREATING OBESITY BY SELECTIVE TARGETING OF VISCERAL ADIPOSITY USING POLYCATION NANOMEDICINE” (THE TRUSTEES OF COLUMBIA UNIVERSITY IN THE CITY OF NEW YORK, priority 2022, published 2025).

System: 3T3-L1 cells
Assay: 3T3-L1 adipocyte differentiation (lipid staining, qPCR)
Type: cell-based, mouse
Details: NMN 20 mM with P-G3 10 μg/ml, day 0-3 of differentiation
Description: 3T3-L1 (ATCC CL-173) and C3H10T1/2 (CCL-226) cells were purchased from ATCC and cultured in high glucose DMEM supplemented with 10% calf serum (CS, Gemini Bio-Products 100-506) or FBS (heat-inactivated, Corning 35-011-CV), and 1× Pen Strep (Thermo Fisher). Cells were differentiated in the standard adipogenic cocktail after reaching confluence for 2 days. The cocktail contains DMEM, 10% FBS, 1 μM dexamethasone (DEX), 10 μg/ml insulin and 0.5 mM 3-isobutyl-1-methylxanthine (IBMX). 5 μM Rosiglitazone was used in the first two days to facilitate C3H10T1/2 cells' differentiation. After induction for two days, cells were maintained in a complete medium containing 2.5 μg/ml insulin until fully differentiated. P-G3 polymers or NPs (10 μg/ml) were added at indicated times, and cells were harvested during differentiation for analyses. Lipid droplets were visualized using Oil Red O staining or BODIPY staining. 3T3-L1 cells were treated with rapamycin (100 nM) from Day 4 to Day 6. […]
Total RNA from tissues or cells was extracted by using the TriZol reagent (Thermo Fisher) in combination with an RNA isolation kit from Macherey-Nagel. […] Bio-Rad CFX96 Real-Time PCR system was used to perform quantitative real-time PCR (qPCR) with goTaq qPCR Master Mix (Promega). The relative gene expression was calculated by using the ΔΔCt method with Cyclophilin A or Rpl23 as the reference gene. […]

NC(=O)c1ccc[n+]([C@@H]2O[C@H](COP(=O)([O-])O)[C@@H](O)[C@H]2O)c1 [NMN, nicotinamide mononucleotide]
effect on P-G3's pro-adipogenic effect: counteracted the pro-adipogenic effect of P-G3
